Reference: the supplement of paper PMC10307832

Assays:
Assay in all cases: relative viability (nuclei count vs DMSO), 5 days (fraction); higher = more cells survive
Wnt-C59 = compound: CC1=NC=CC(=C1)C2=CC=C(C=C2)CC(=O)NC3=CC=C(C=C3)C4=CN=CC=C4 [Wnt-C59]
Outline: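 Lung cancer cell lines were seeded into 1536-well plates, kept overnight at 37 °C and pinned with five library-drug doses (not always all listed) spaced by √10. After 5 days, nuclei were Hoechst-stained, imaged at 4× and counted with MetaXpress. Viability is treated-well nuclei over vehicle-well nuclei, taken as a median across plates. Plates needed control CV below 25% and at least one doubling.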

Wnt-C59 + Luminespib = compound: CC1=NC=CC(=C1)C2=CC=C(C=C2)CC(=O)NC3=CC=C(C=C3)C4=CN=CC=C4 [Wnt-C59] + CCNC(=O)c1noc(-c2cc(C(C)C)c(O)cc2O)c1-c1ccc(CN2CCOCC2)cc1 [Luminespib] (partner 0.01 µM)
Outline: (§1)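 Relative viability was taken as the ratio of nuclei in treated wells to nuclei in vehicle wells. Lung cancer cell lines in 1536-well plates received compounds by pin tool one day after seeding, either one drug alone or a fixed anchor-drug dose plus five library-drug doses (not always all listed) in √10 steps. Nuclei were counted on 4× images after 5 days of treatment, and values are medians of duplicate plates.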

Wnt-C59 + Pemetrexed = compound: CC1=NC=CC(=C1)C2=CC=C(C=C2)CC(=O)NC3=CC=C(C=C3)C4=CN=CC=C4 [Wnt-C59] + Nc1nc2[nH]cc(CCc3ccc(C(=O)N[C@@H](CCC(=O)O)C(=O)O)cc3)c2c(=O)[nH]1 [Pemetrexed] (partner 0.2 µM)
Outline: as §1

Lapatinib + OSI-027 = compound: CS(=O)(=O)CCNCc1ccc(-c2ccc3ncnc(Nc4ccc(OCc5cccc(F)c5)c(Cl)c4)c3c2)o1 [Lapatinib] + COc1cccc2cc(-c3nc([C@H]4CC[C@H](C(=O)O)CC4)n4ncnc(N)c34)[nH]c12 [OSI-027] (partner 0.5 µM)
Outline: as §1

Cell Line | relative viability (Wnt-C59; 0.001 µM) | relative viability (Wnt-C59; 0.01 µM) | relative viability (Wnt-C59; 0.03162 µM) | relative viability (Wnt-C59; 0.1 µM) | relative viability (Wnt-C59 + Luminespib; first compound 0.001 µM) | relative viability (Wnt-C59 + Luminespib; first compound 0.01 µM) | relative viability (Wnt-C59 + Luminespib; first compound 0.03162 µM) | relative viability (Wnt-C59 + Luminespib; first compound 0.1 µM) | relative viability (Wnt-C59 + Pemetrexed; first compound 0.001 µM) | relative viability (Wnt-C59 + Pemetrexed; first compound 0.01 µM) | relative viability (Wnt-C59 + Pemetrexed; first compound 0.03162 µM) | relative viability (Wnt-C59 + Pemetrexed; first compound 0.1 µM) | relative viability (Lapatinib + OSI-027; first compound 0.06325 µM) | relative viability (Lapatinib + OSI-027; first compound 0.2 µM) | relative viability (Lapatinib + OSI-027; first compound 0.6325 µM) | relative viability (Lapatinib + OSI-027; first compound 2 µM) | relative viability (Lapatinib + OSI-027; first compound 0.02 µM)
NCI-H2347 | 1.05 | 1.01 | 1.03 | 0.997 | 0.565 | 0.339 | 0.498 | 0.877 | 0.46 | 0.489 | 0.451 | 0.434 | 0.266 | 0.462 | 0.44 | 0.366 | –
NCI-H2405 | 1.01 | 0.932 | 0.945 | 0.977 | 0.762 | 0.809 | 0.7 | 0.842 | 1.02 | 1.01 | 0.989 | 1.08 | 0.382 | 0.655 | 0.649 | 0.604 | 0.441
NCI-H3122 | 0.989 | 0.991 | 1.02 | 0.962 | 0.0968 | 0.0872 | 0.0839 | 0.0884 | 0.219 | 0.216 | 0.197 | 0.195 | 0.556 | 0.962 | 0.902 | 0.893 | –
PC-3 [JPC-3] | 1.04 | 1.06 | 1.05 | 1.14 | 0.782 | 0.817 | 0.913 | 0.696 | 1.11 | 1.24 | 1.04 | 1.47 | 0.624 | 0.725 | 0.756 | 0.565 | 0.73
PC-14 | 1.09 | 1.1 | 1 | 1 | 0.178 | 0.166 | 0.144 | 0.16 | 0.131 | 0.138 | 0.109 | 0.143 | 0.743 | 0.824 | 0.794 | 0.152 | 0.464
RERF-LC-KJ | 1 | 0.978 | 1.09 | 0.987 | 1.2 | 1.38 | 1.23 | 1.18 | 0.483 | 0.497 | 0.45 | 0.495 | 0.344 | 0.424 | 0.401 | 0.315 | 0.532
SK-LU-1 | 1 | 0.987 | 1.01 | 1.01 | 0.211 | 0.219 | 0.184 | 0.206 | 0.969 | 1 | 1 | 0.973 | 0.219 | 0.286 | 0.353 | 0.324 | 0.292
SK-MES-1 | 1.01 | 1.05 | 1.06 | 0.993 | 0.88 | 0.792 | 0.78 | 0.739 | 0.92 | 0.982 | 0.986 | 0.827 | 0.453 | 0.6 | 0.578 | 0.256 | 0.472
SW 900 | 0.681 | 0.755 | 0.793 | 0.823 | 0.159 | 0.179 | 0.172 | 0.197 | 0.505 | 0.469 | 0.483 | 0.478 | 0.576 | 0.532 | 0.496 | 0.488 | –
SW 1573 | 1.02 | 0.967 | 1.1 | 0.91 | 0.227 | 0.398 | 0.37 | 0.177 | 0.863 | 0.848 | 0.879 | 0.761 | 0.379 | 0.612 | 0.735 | 0.635 | 0.626
